{"source": "patent US9724380B2", "about": "“Method and compositions for synchronizing time of insemination in gilts” (JBS UNITED ANIMAL HEALTH II LLC, priority 2012, dated 2017)", "key": {"[1]": {"system": "gilts", "assay": "Example 1: ovulation monitored by transrectal ultrasonography after 200 mcg triptorelin gel intravaginally at 96, 120 or 144 h after MATRIX withdrawal", "format": "in vivo, swine", "conditions": "200 mcg T, raw average, PTK 1-07 (rep 3)", "procedure": "All gilts were individually fed MATRIX® as a top-dress for 14 days at the recommended rate of 15 mg/gilt/day. Gilts were withdrawn from MATRIX® feeding (last top feed in the morning on Day 0) and allotted to treatments. Controls were treated with a 1.2% methylcellulose gel formulation without triptorelin at 96 hours following MATRIX® withdrawal (last top-dress). The remaining gilts received 200 mcg triptorelin, as the acetate, in a 1.2% methylcellulose gel formulation intravaginally at various times after MATRIX® withdrawal. The four treatments were: 1) vehicle gel (VG) treatment at 96 hours after MATRIX® withdrawal, 2) triptorelin gel (TG) treatment at 96 hours after MATRIX® withdrawal, 3) TG treatment at 120 hours after MATRIX® withdrawal and 4) TG treatment at 144 hours after MATRIX® withdrawal. All gilts were monitored for their estrous and ovulatory status as described below. Gilts included in replicate 1 were selected from terminal line commercial production gilts located in grow/finish barns. Sexual maturity, as indicated by one or more estrous periods, was not verified prior to the start of MATRIX® feeding. Gilts included in replicate 2 were selected from a maternal line gilt population. Sexual maturity was verified by at least one estrous period verified and recorded prior to starting MATRIX® feeding.\n(§1) Triptorelin (pGlu-His-Trp-Ser-Tyr-D-Trp-Leu-Arg-Pro-Gly-NH2) was supplied in the acetate form, from Bachem, Torrance, Calif. (Item H-4075 CGMP grade). Triptorelin gel (200 μg/2 mL) was formulated by Argenta (Auckland, NZ) in a gel composed of Methocel Premium A4000 (Dow Chemical), citrate buffer (pH 5.5), NaCl, methionine and EDTA (as potential stabilizers) and methyl and propyl parabens (as preservatives). Fifty-four milliliters of triptorelin gel (100 mcg triptorelin acetate/mL) was packaged in Amber Borosilicate Glass Serum Vials (610206-50) with a Gray Butyl Pharmaceutical Serum Vial Stopper (73828A-SS) with a Standard Aluminum Seal (SAS20NAT). […] MATRIX® was supplied as the US commercially available form.\nThe ovulatory status of all gilts was monitored by transrectal ultrasonography. For replicate one, ovulation was monitored two times on Day 5, then three times a day from Day 6 to Day 8. For replicate two, ovulation was monitored three times a day from Day 5 to Day 8. An Aloka 500 ultrasound machine with a 7.5 MHz linear array transducer attached to a fixed-angle PVC stabilizing rod to facilitate insertion into the rectum was used for this purpose. The transducer and PVC rod were coated with a gynecological lubricant and gently inserted into the rectum until the ovaries were visualized, one at a time. The diameters of the three largest follicles were recorded (to the nearest 0.1 mm) at each scanning. A gilt was declared to have ovulated when the number of large follicles (≧6.5 mm) fell to less than 3.\n(§2) A single 2 mL dose of triptorelin gel or vehicle gel was deposited within approximately 1-2 cm posterior to the cervix with a catheter similar to those used for artificial insemination. The dose was delivered using a standard multi-dose applicator attached to the catheter. A new disposable sheath, which surrounds the catheter, was used for each gilt.\nData were analyzed using the Mixed Models procedures of SAS. Models included main effects of time of treatment following the last feeding of MATRIX®, replicate, and treatment by replicate interaction. Differences between treatments were tested on least squares means estimates using the T test at P<0.05. Data for analysis were tested for assumptions of data normality."}, "[2]": {"system": "gilts", "assay": "Example 5: ovulation monitored by transrectal ultrasonography after 100, 200 or 400 mcg triptorelin gel intravaginally at 120 h after MATRIX withdrawal", "format": "in vivo, swine", "conditions": "for Percentage ovulated by 48 hours: blood-sampled subpopulation; for % of Sows Ovulating: raw average, PTK 2-07", "procedure": "All gilts were individually fed MATRIX® as a top-dress for 14 or 15 days at the recommended rate of 15 mg/gilt/day. Gilts were withdrawn from MATRIX® feeding (last top-dress in the morning on Day 0) and allocated to each of the following treatments. Controls were vehicle gel treated (vehicle gel without triptorelin) at 120 (+/−2) hours following MATRIX® withdrawal (last top dress). The other gilts were given 100, 200 or 400 mcg triptorelin as the acetate in a methylcellulose gel formulation 120 (+/−2) hours following MATRIX® withdrawal. The four treatments were: • 1. Vehicle gel (VG): vehicle gel without triptorelin at 120 (+/−2) hours after MATRIX® withdrawal. • 2. TG 100: 100 mcg (2 mL 50 mcg/mL) triptorelin gel at 120 (+/−2) hours after MATRIX® withdrawal. • 3. TG 200: 200 mcg (2 mL 100 mcg/mL) triptorelin gel at 120 (+/−2) hours after MATRIX® withdrawal. • 4. TG 400: 400 mcg (2 mL 200 mcg/mL) triptorelin gel at 120 (+/−2) hours after MATRIX® withdrawal.\nas §1, with “(100-400 mcg/2 mL dose)” for “(200 μg/2 mL)”, “methionine,” for “methionine and EDTA (as potential stabilizers)”, “parabens.” for “parabens (as preservatives).”\nOvulation was monitored twice on Day 5 (8 hours and 16 hours post-treatment) and every 8 hours on Day 6 and Day 7 or until ovulation was confirmed or 176 hours following last MATRIX® feeding. The ovulatory status of all gilts was monitored by transrectal ultrasonography. An Aloka 500 ultrasound machine is used for this purpose, with a 7.5 MHz linear array transducer attached to a fixed-angle PVC stabilizing rod to facilitate insertion into the rectum. The transducer and PVC rod are coated with a gynecological lubricant and gently inserted into the rectum until the ovaries can be visualized, one at a time. The diameters of the three largest follicles were recorded (to the nearest 0.1 mm) at each scanning. A gilt was declared to have ovulated when the number of large follicles (≧6.5 mm) fell to less than 3.\nas §2"}}, "data": [{"molecule": "CC(C)C[C@H](NC(=O)[C@@H](Cc1c[nH]c2ccccc12)NC(=O)[C@H](Cc1ccc(O)cc1)NC(=O)[C@H](CO)NC(=O)[C@H](Cc1c[nH]c2ccccc12)NC(=O)[C@H](Cc1c[nH]cn1)NC(=O)[C@@H]1CCC(=O)N1)C(=O)N[C@@H](CCCNC(=N)N)C(=O)N1CCC[C@H]1C(=O)NCC(N)=O", "note": "[T, pGlu-His-Trp-Ser-Tyr-D-Trp-Leu-Arg-Pro-Gly-NH2]", "values": [{"measurement": "% of Sows Ovulating", "setting": "[1]; 128 h post-MATRIX (8 h post-T)", "value": 0.0, "unit": "%"}, {"measurement": "% of Sows Ovulating", "setting": "[1]; 136 h post-MATRIX (16 h post-T)", "value": 10.0, "unit": "%"}, {"measurement": "% of Sows Ovulating", "setting": "[1]; 144 h post-MATRIX (24 h post-T)", "value": 30.0, "unit": "%"}, {"measurement": "% of Sows Ovulating", "setting": "[1]; 152 h post-MATRIX (32 h post-T)", "value": 70.0, "unit": "%"}, {"measurement": "% of Sows Ovulating", "setting": "[1]; 160 h post-MATRIX (40 h post-T)", "value": 80.0, "unit": "%"}, {"measurement": "% of Sows Ovulating", "setting": "[1]; 168 h post-MATRIX (48 h post-T)", "value": 90.0, "unit": "%"}, {"measurement": "% of Sows Ovulating", "setting": "[1]; 176 h post-MATRIX (56 h post-T)", "value": 100.0, "unit": "%"}, {"measurement": "Percentage ovulated by 48 hours", "setting": "[2]; 100 mcg T (n = 6)", "value": 100, "unit": "%"}, {"measurement": "% of Sows Ovulating", "setting": "[2]; 100 mcg T, 128 h post-MATRIX (8 h post-T)", "value": 0.0, "unit": "%"}, {"measurement": "% of Sows Ovulating", "setting": "[2]; 100 mcg T, 136 h post-MATRIX (16 h post-T)", "value": 5.0, "unit": "%"}, {"measurement": "% of Sows Ovulating", "setting": "[2]; 100 mcg T, 144 h post-MATRIX (24 h post-T)", "value": 20.0, "unit": "%"}, {"measurement": "% of Sows Ovulating", "setting": "[2]; 100 mcg T, 152 h post-MATRIX (32 h post-T)", "value": 30.0, "unit": "%"}, {"measurement": "% of Sows Ovulating", "setting": "[2]; 100 mcg T, 160 h post-MATRIX (40 h post-T)", "value": 60.0, "unit": "%"}, {"measurement": "% of Sows Ovulating", "setting": "[2]; 100 mcg T, 168 h post-MATRIX (48 h post-T)", "value": 95.0, "unit": "%"}, {"measurement": "% of Sows Ovulating", "setting": "[2]; 100 mcg T, 176 h post-MATRIX (56 h post-T)", "value": 100.0, "unit": "%"}, {"measurement": "Percentage ovulated by 48 hours", "setting": "[2]; 200 mcg T (n = 7)", "value": 100, "unit": "%"}, {"measurement": "% of Sows Ovulating", "setting": "[2]; 200 mcg T, 128 h post-MATRIX (8 h post-T)", "value": 0.0, "unit": "%"}, {"measurement": "% of Sows Ovulating", "setting": "[2]; 200 mcg T, 136 h post-MATRIX (16 h post-T)", "value": 0.0, "unit": "%"}, {"measurement": "Percentage ovulated by 48 hours", "setting": "[2]; 400 mcg T (n = 6)", "value": 100, "unit": "%"}, {"measurement": "% of Sows Ovulating", "setting": "[2]; 400 mcg T, 128 h post-MATRIX (8 h post-T)", "value": 4.5, "unit": "%"}, {"measurement": "% of Sows Ovulating", "setting": "[2]; 400 mcg T, 136 h post-MATRIX (16 h post-T)", "value": 9.1, "unit": "%"}, {"measurement": "% of Sows Ovulating", "setting": "[2]; 400 mcg T, 168 h post-MATRIX (48 h post-T)", "value": 100.0, "unit": "%"}, {"measurement": "% of Sows Ovulating", "setting": "[2]; 400 mcg T, 176 h post-MATRIX (56 h post-T)", "value": 100.0, "unit": "%"}]}]}
